System: ES cells-derived neurons
Assay: Whole-cell patch-clamp recordings on ES cells-derived neurons
Format: cell-based, mouse
Conditions: cells in culture for 10 and up to 22 days

With `NS(=O)(=O)c1cccc2c1c([N+](=O)[O-])cc1nc(O)c(O)nc12` [NBQX] the “block of spontaneous synaptic currents (SSCs)” value was “blocking of synaptic currents”.
